Laboratory results from patent publication US6096293A, “Antiplaque oral composition and method” (priority 1999, dated 2000).

Experiments:
[1] = tested on: A. viscosus, A. naeslundii, S. mutans and S. sanguis; settings: Evans 1977; cited from earlier work
[2] = tested on: A. viscosus; assay: Minimum Inhibitory Concentration (MIC), neat AA solutions in ethanol; type: cell-based; settings: for MIC: neat solution in 98.5% ethanol
Description: (§1) The smaller the MIC, the greater the antibacterial activity of the AA being tested. This MIC test is also described in U.S. Pat. No. 5,275,805 at column 11, lines 54-68, which description is herewith incorporated herein.

[3] = tested on: S. mutans; assay: as above; type: cell-based; settings: for MIC: neat solution in 98.5% ethanol
Description: as §1

[4] = tested on: S. sanguis; assay: as above; type: cell-based; settings: for MIC: neat solution in 98.5% ethanol
Description: as §1

[5] = tested on: bacteria; assay: Antimicrobial activity in general (comparison with thymol / triclosan, effect of substitution); type: cell-based
[6] = tested on: B. typhosus and Staph. aureus; settings: v. B. typhosus and Staph. aureus; Suter 1941; cited from earlier work
[7] = tested on: bacteria; settings: background statement; cited from earlier work
[8] = tested on: A. viscosus; settings: Evans 1977; cited from earlier work
[9] = tested on: A. naeslundii; settings: Evans 1977; cited from earlier work
[10] = tested on: S. mutans; settings: Evans 1977; cited from earlier work
[11] = tested on: S. sanguis; settings: Evans 1977; cited from earlier work

Row | Compound | inhibition of in vitro growth or plaque formation [1] | MIC [2] | MIC [3] | MIC [4] | phenol coefficient [6] | other results
1 | O=S(=O)([O-])c1ccc(O)cc1.O=S(=O)([O-])c1ccc(O)cc1.[Zn+2] [zinc phenolsulfonate] | did not inhibit in vitro growth or plaque formation |  |  |  |  | 
2 | phenylphenol | did not inhibit in vitro growth or plaque formation |  |  |  |  | 
3 | Oc1cc(Cl)ccc1Oc1ccc(Cl)cc1Cl [Triclosan] |  | 0.50 ppm | 1.95 ppm | 0.98 ppm |  | activity compared to thymol ([5]; AA's of the Tables, "10 to 100 or more times"): ~100 times
4 | CC(C)(C)c1ccc(O)c(C(C)(C)C)c1 [2,4-di-t-butylphenol] |  | 1.95 ppm | 0.98 ppm | 1.95 ppm |  | activity relative to triclosan ([2]; MIC test of Example 5): somewhat less active than triclosan; activity relative to triclosan ([3]; MIC test of Example 5): significantly superior to triclosan; activity relative to triclosan ([4]; MIC test of Example 5): somewhat less active than triclosan; activity relative to thymol ([5]; MIC test of Example 5, A. viscosus, S. sanguis, S. mutans): many times superior to thymol
5 | CCC(C)c1ccccc1O (centres unmarked) [o-sec-butyl phenol] |  |  |  |  | 28 | 
6 | Cc1ccc(C(C)C)c(O)c1 [Thymol, 2-isopropyl-5-methylphenol] | did not inhibit in vitro growth or plaque formation | 15.60 ppm | 31.25 ppm | 15.60 ppm |  | antimicrobial activity relative to triclosan (background) [7]: only a small fraction of the activity of triclosan
7 | tert.butylphenol |  |  |  |  | about 20 | 
8 | O=C(Nc1ccc(Br)cc1)c1cc(Br)cc(Br)c1O [3,5,4'-tribromo-salicylanilide] |  |  |  |  |  | effect on growth and plaque formation [8]: effective against growth and plaque formation; effect on growth and plaque formation [9]: effective against growth and plaque formation; effect on growth and plaque formation [10]: effective against growth and plaque formation; effect on growth and plaque formation [11]: effective against growth and plaque formation
9 | O=C(C(=O)c1cc(Br)ccc1O)c1cc(Br)ccc1O [Dibromsalicil] |  |  |  |  |  | effect on growth and plaque formation [8]: effective against A. viscosus
10 | CCC(C)c1ccc(O)cc1 (centres unmarked) [p-sec-butyl phenol] |  |  |  |  | 28 | 
